Here are results for one compound from US5747467A, “Erythromycins” (Roussel Uclaf, priority 1995, dated 1998).

What all share (assay type): cell-based
Assay [1] deals with Streptococcus pneumoniae 030SJ5. The assay is described as follows: M.I.C., dilutions in liquid medium. Conditions: 24 hours at 37° C., read-out: minimal inhibitory concentration (M.I.C.). The method, then: (§1) Method of dilutions in liquid medium A series of tubes was prepared into which an equal quantity of sterile nutritive medium was distributed. Increasing quantities of the product to be studied were distributed into each tube and then each tube was seeded with a bacterial strain. After incubation for twenty-four hours in an oven at 37° C., the growth inhibition was evaluated by trans-illumination which allowed the minimal inhibitory concentrations (M.I.C.), expressed in micrograms/cm^3, to be determined.

The subject of assay [2] is Streptococcus faecalis group D 02D2UC1. The assay is described as follows: M.I.C., dilutions in liquid medium. Conditions: Enterococcus faecalis, GROUPD02D2UC1, 24 hours at 37° C., read-out: minimal inhibitory concentration (M.I.C.). The method, then:
as §1

Assay [3] has as its system Staphylococcus aureus 011UC4. Briefly: M.I.C., dilutions in liquid medium. Conditions: 24 hours at 37° C., read-out: minimal inhibitory concentration (M.I.C.). As for the experimental part:
as §1

The subject of assay [4] is Streptococcus faecium group D 02D3HT1. Briefly: M.I.C., dilutions in liquid medium. As to conditions: Enterococcus faecium, GROUPD02D3HT1, 24 hours at 37° C., read-out: minimal inhibitory concentration (M.I.C.). As for the experimental part: as §1
For assay [5], the system named is Staphylococcus epidermidis 012GO11I. Briefly: M.I.C., dilutions in liquid medium. Conditions: 24 hours at 37° C., read-out: minimal inhibitory concentration (M.I.C.). The method, then: as §1
Assay [6] deals with Staphylococcus aureus 011G025I. Briefly: M.I.C., dilutions in liquid medium. As to conditions: 24 hours at 37° C., read-out: minimal inhibitory concentration (M.I.C.). As for the experimental part: as §1
Assay [7] deals with Streptococcus agalactiae group B 02B1HT1. The assay is described as follows: M.I.C., dilutions in liquid medium. As to conditions: GROUPB02B1HT1, 24 hours at 37° C., read-out: minimal inhibitory concentration (M.I.C.). The method, then:
as §1

Assay [8] relates to Streptococcus pyogenes group A 02A1UC1. Briefly: M.I.C., dilutions in liquid medium. As to conditions: GROUPA02A1UC1, 24 hours at 37° C., read-out: minimal inhibitory concentration (M.I.C.). As for the experimental part:
as §1

Assay [9] concerns Streptococcus sp group G 02G0GR5. The assay is described as follows: M.I.C., dilutions in liquid medium. Conditions: GROUPG02G0GR5, 24 hours at 37° C., read-out: minimal inhibitory concentration (M.I.C.). As for the experimental part:
as §1

In assay [10] the test system is Streptococcus mitis 02mitCB1. Briefly: M.I.C., dilutions in liquid medium. As to conditions: 24 hours at 37° C., read-out: minimal inhibitory concentration (M.I.C.). The method, then:
as §1

The subject of assay [11] is Streptococcus agalactiae group B 02B1SJ1. The assay is described as follows: M.I.C., dilutions in liquid medium. Conditions: GROUPB02B1SJ1, 24 hours at 37° C., read-out: minimal inhibitory concentration (M.I.C.). The method, then:
as §1

Assay [12] relates to Streptococcus mitis 02mitGR16I. Briefly: M.I.C., dilutions in liquid medium. Conditions: 24 hours at 37° C., read-out: minimal inhibitory concentration (M.I.C.). The method, then: as §1
Assay [13] has as its system Haemophilus Influenzae 351HT3, 351CB12, 351CA1 and 351GR6. The assay is described as follows: activity on gram (-) bacterial strains. As for the experimental part:
as §1

The structures appear in SMILES notation. Converted amounts (≈) assume the structure as drawn.

As to `CC[C@H]1OC(=O)C(C)(F)C(=O)[C@H](C)[C@@H](O[C@@H]2O[C@H](C)C[C@H](N(C)C)[C@H]2O)[C@](C)(OC)C[C@@H](C)C(=O)[C@H](C)[C@H]2N(CCCCn3cnc4cccnc43)C(=O)O[C@]12C` (single isomer, unassigned) [Example 1, 11,12-dideoxy-3-de[(2,6-dideoxy-3-C-methyl-3-0-methyl-α-L-ribohexopyranosyl)-oxy]-2-fluoro-6-0-methyl-3-oxo-12,11-(oxycarbonyl( (4-(3H-imidazo(4,5-b)pyridin-3-yl)-butyl)-imino))-erythromycin], the MIC was 0.02 µg/mL (≈ 0.0249 µM) in assay [1]; 0.02 µg/mL (≈ 0.0249 µM) in assay [2]; 0.04 µg/mL (≈ 0.0498 µM) in assay [3]; not above 0.02 µg/mL in assay [4]; 0.15 µg/mL (≈ 0.187 µM) in assay [5]; 0.08 µg/mL (≈ 0.0995 µM) in assay [6]. Further, the MIC was not above 0.02 µg/mL in [7]; not above 0.02 µg/mL in [8]; 0.02 µg/mL (≈ 0.0249 µM) in assay [9]; not above 0.02 µg/mL in [10]; 0.08 µg/mL (≈ 0.0995 µM) in assay [11]; not above 0.02 µg/mL in assay [12]. Further, in assay [13], the “activity on gram (-) bacterial strains” value was “very useful activity”.
